{
  "source": "patent US20180303859A1",
  "about": "“Agent For Preventing And/Or Treating Scleroderma” (THE UNIVERSITY OF TOKYO, priority 2015, published 2018)",
  "key": {"[1]": {"tested_on": "BLM-induced scleroderma model mice", "assay": "Endothelial-to-mesenchymal transition (Endo-MT) in skin of BLM-induced scleroderma model mice (VE-cadherin/FSP1 immunostaining, Snail1 mRNA)", "type": "in vivo", "protocol": "Paraffin sections were prepared using skin samples of the injection site of BLM-induced scleroderma model mice prepared under the same conditions as in Example 1. A rabbit anti-VE-cadherin antibody (Santa Cruz Biotechnolog) and a goat anti-fibroblast-specific protein 1 (FSP1) antibody (abcam, Cambridge, UK) as primary antibodies, and an FITC-conjugated donkey anti-rabbit IgG antibody (Santa Cruz Biotechnolog) and an Alexa Fluor donkey 555 anti-goat IgG antibody (Invitrogen, Carlsbad, Calif., USA) as secondary antibodies, were reacted with the sections, and nuclear staining was performed using Vectashield with DAPI (Vector Laboratories, Burlingame, Calif., USA). Observation was carried out using Bio Zero BZ-8000 (Keyence, Osaka, Japan) at wavelengths of 495 nm (green), 565 nm (red), and 400 nm (blue). The number of cells stained with both FSP1 and VE-Cadherin, which are observed as green color and red color, respectively (cells that had undergone Endo-MT), was compared. Further, from the skin samples, RNA was extracted by the same method as in Example 1, and the mRNA level of Snail1 was measured. Primers having the following sequences were used."}, "[2]": {"tested_on": "BLM-induced scleroderma model mice", "assay": "Study on inflammation and immune abnormality in BLM-induced scleroderma model mice (FACS of CD4-positive cells, skin cytokine mRNA)", "type": "in vivo", "protocol": "BLM-induced scleroderma model mice were prepared by the same treatment as in Example 1 except that the bleomycin administration treatment was carried out for only one week. On the last day of the administration, bilateral inguinal lymph nodes and the spleen were removed from each mouse. After mashing the lymph nodes, lymphocytes were separated therefrom. To blood cells removed from the spleen, RBC lysis buffer (0.0017 M Trizma, Sigma-Aldrich, 0.1 M NH4Cl 2.675 g, Sigma-Aldrich) was added to separate lymphocytes. The lymphocytes were subjected to staining of surface antigens using an anti-CD3 antibody (17A2), anti-CD4 antibody (RM4-5), and anti-CD8a antibody (53-6.7). Further, stimulation was carried out with 10 ng/ml phorbol myristate acetate (Sigma-Aldrich), 1 μg/ml ionomycin (Sigma-Aldrich), and 1 μg/ml brefeldin A ([…]; BD PharMingen) for four hours, and staining of intracellular antigens was carried out using an anti-interleukin (IL)-4 antibody (11B11), anti-IL17A antibody (TC11-18HC0.1), and anti-interferon (IFN)-γ antibody (XMG1.2) (all antibodies were manufactured by BioLegend, San Diego, Calif., USA). The stained lymphocytes were analyzed using a FACS Verseflow cytometer (BD Biosciences).\nFurther, from the skin of the back at the injection site of each BLM-induced scleroderma model mouse, RNA was extracted by the same method as in Example 1, and the mRNA levels of IL4, IL1 b, and arginase were measured. Primers having the following sequences were used."}, "[3]": {"tested_on": "mice deficient for vascular endothelial cell-specific Fli1 (Fli1 flox/flox; Tie2-Cre)", "assay": "Extravasation of Evans blue dye in vascular endothelial cell-specific Fli1 deficient mice", "type": "in vivo", "conditions": "vascular endothelial cell-specific Fli1 knockout mice; intraperitoneal administration, two weeks; absorbance at 620 nm", "protocol": "Subsequently, under the same conditions as in Example 1, monoammonium glycyrrhizinate or PBS was intraperitoneally administered to 10-week-old mice deficient for vascular endothelial cell-specific Fli1 (Fli1 flox/flox; Tie2-Cre: see American Journal of Pathology, April 2010 Volume 176, Issue 4, p 1983-1998), which are model mice for angiopathy in scleroderma, or to control mice (Fli1 flox/flox). Two weeks later, 200 μl of Evans blue dye (0.5% in PBS) was administered into the tail vein of each mouse, and the mouse was euthanized 30 minutes thereafter, followed by incision of the skin from the middle of the abdomen. Cutaneous blood vessels were macroscopically observed from the dermal side to evaluate the degree of leakage of the dye. Further, for measurement of extravasation of Evans blue, skin was collected from three positions using a skin biopsy punch with a diameter of 4 mm, and then allowed to dissolve in formamide at 37° C. for 24 hours, followed by measurement of the absorbance at a wavelength of 620 nm using a microplate reader."}, "[4]": {"tested_on": "BLM-induced scleroderma model mice", "assay": "Study on fibrosis in BLM-induced scleroderma model mice (dermal thickness, collagen, α-SMA-positive fibroblasts, skin mRNA)", "type": "in vivo, C57BL/6 mice", "protocol": "To the skin of the back of 8-week-old C57BL/6 mice (wild type), 1 mg/ml bleomycin (BLM) solution prepared with phosphate buffered saline (PBS) was intracutaneously injected at a dose of 300 μg every day for four weeks to prepare BLM-induced scleroderma model mice. A control group was provided by subcutaneous injection of the same amount of PBS. At the same time, monoammonium glycyrrhizinate (Cokey Co., Ltd.) dissolved in PBS was intraperitoneally administered at a dose of 30 mg/kg every day for four weeks. A control group was provided by intraperitoneal administration of the same amount of PBS. Using a skin biopsy punch with a diameter of 6 mm, the skin tissue at the injection site was collected, and subjected to Hematoxylin & Eosin staining to measure the dermal thickness. Further, a skin sample collected by the same method was subjected to quantification of the collagen content using a QuickZyme Total Collagen Assay kit (QuickZyme BioSciences B.V., Netherlands).\nParaffin sections were prepared using the skin of the back at the injection site of each BLM-induced scleroderma model mouse, and reacted with an anti-α-smooth muscle actin (α-SMA) antibody (Sigma-Aldrich, St. Louis, Mo., USA) according to the manufacturer's instruction provided for the VEVTOR M.O.M Immunodetection Kit (Vector laboratories, Burlingame, Calif., USA), followed by coloring with DAB (0.2 mg/ml, DOJINDO LABORATORIES, Kumamoto, JAPAN). For each mouse skin sample, three photographs of the superficial dermal layer were randomly taken for ×400 viewing areas, and the numbers of spindle-shaped cells positive for α-SMA were counted. Their average was regarded as the number of α-SMA-positive fibroblasts in the mouse. Comparison was made between the glycyrrhizic acid group and the control group.\nFurther, RNA was extracted from the skin of the back at the injection site of each BLM-induced scleroderma model mouse using an RNeasy min kit (Qiagen Valencia, Calif., USA), and then reverse-transcribed into cDNA using iScript cDNA Synthesis Kits (Bio-Rad, Hercules, Calif., USA). Measurement by quantitative real-time PCR was carried out using a SYBR Green PCR Master Mix (Life technologies) with ABI prism 7000 (Life technologies). The measurement was carried out in triplicate for each sample to calculate the average value. As a reference gene, Gapdh was used. The relative expression level of mRNA of the subject gene was calculated by the ^ΔΔCt method. Primers having the following sequences were used."}, "[5]": {"conditions": "lymph nodes or spleen, BLM for one week, FACS"}, "[6]": {"conditions": "skin tissue of BLM-induced scleroderma model mice"}, "[7]": {"conditions": "skin of BLM-induced scleroderma model mice, quantitative real-time PCR"}},
  "data": [
    {"smiles": "CC1(C)[C@@H](O[C@H]2O[C@H](C(=O)O)[C@@H](O)[C@H](O)[C@H]2O[C@@H]2O[C@H](C(=O)O)[C@@H](O)[C@H](O)[C@H]2O)CC[C@]2(C)[C@H]3C(=O)C=C4[C@@H]5C[C@@](C)(C(=O)O)CC[C@]5(C)CC[C@@]4(C)[C@]3(C)CC[C@@H]12", "note": "[glycyrrhizic acid]", "values": [
      {"measurement": "mRNA level of Snail1", "setting": "[1]", "value": "significantly decreased"},
      {"measurement": "increase in cells that have undergone Endo-MT (stained for both VE-cadherin and FSP1)", "setting": "[1]; immunostaining", "value": "suppressed"},
      {"measurement": "ratio of IFN-γ-positive cells among CD4-positive cells", "setting": "[2]; [5]", "value": "did not cause any change"},
      {"measurement": "ratio of IL17A-positive cells among CD4-positive cells", "setting": "[2]; [5]", "value": "did not cause any change"},
      {"measurement": "ratio of IL4-positive cells among CD4-positive T cells", "setting": "[2]; lymph nodes, BLM for one week, FACS", "value": "significant decreases"},
      {"measurement": "mRNA of arginase (marker for M2 macrophages)", "setting": "[2]; [6]", "value": "decreased"},
      {"measurement": "mRNA of interleukin 1 b", "setting": "[2]; [6]", "value": "decreased"},
      {"measurement": "mRNA of interleukin 4", "setting": "[2]; [6]", "value": "decreased"},
      {"measurement": "ratio of IL4-positive cells among CD4-positive T cells", "setting": "[2]; spleen, BLM for one week, FACS", "value": "significant decreases"},
      {"measurement": "extravasation of Evans blue", "setting": "[3]", "value": "significantly decreased"},
      {"measurement": "number of myofibroblasts (α-SMA-positive fibroblasts) in the skin", "setting": "[4]; BLM-induced scleroderma model mice, 30 mg/kg i.p. daily, four weeks", "value": "significant decrease"},
      {"measurement": "dermal thickness (thickening of the dermis)", "setting": "[4]; BLM-induced scleroderma model mice, 30 mg/kg intraperitoneally every day for four weeks", "value": "reduced"},
      {"measurement": "amount of collagen fibers", "setting": "[4]; BLM-induced scleroderma model mice, skin at injection site, 30 mg/kg i.p. daily, four weeks", "value": "decreased"},
      {"measurement": "amount of collagen fibers", "setting": "[4]; control mice not subjected to BLM induction, 30 mg/kg i.p. daily, four weeks", "value": "did not cause any change"},
      {"measurement": "dermal thickness", "setting": "[4]; control mice not subjected to BLM induction, 30 mg/kg intraperitoneally every day for four weeks", "value": "did not cause any change"},
      {"measurement": "mRNA of Col1a1", "setting": "[4]; [7]", "value": "significant decreases"},
      {"measurement": "mRNA of Col1a2", "setting": "[4]; [7]", "value": "significant decreases"},
      {"measurement": "mRNA of Col3a1", "setting": "[4]; [7]", "value": "significant decreases"},
      {"measurement": "mRNA of Mmp13 (collagenase)", "setting": "[4]; [7]", "value": "significant increase"},
      {"measurement": "mRNA of thrombospondin (Thbs1)", "setting": "[4]; [7]", "value": "decrease"}
    ]}
  ]
}
